Some test systems named below: A498; CAKI-1; COLO 205; HCT-15; HL-60; Hs-578T; K562; LOX IMVI; MCF7; MDA-MB-231; MOLT-4; OVCAR-8; PC-3; RPMI-8226; SK-MEL-5; SK-OV-3; SNB-75; TK-10; UACC-257; HOP-92.
Holding throughout (test): NCI anticancer screen, dose series, 48 h

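Where inhibition never reached the appropriate level, the endpoint shown equals the highest concentration tested. Otherwise, values were interpolated linearly from a five-concentration, 48-hour dose response in 96-well plates. The concentration for 50% growth inhibition is given as GI50.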 Activity calls are given as the source filed them. Rule as the data show it: active = GI50 up to about 1.1 µM and inactive = higher. Bounds are passed on as bounds.

For `CCCCCCCCCCCCCCCCC(C(=O)O)C(O)(CC(=O)O)C(=O)O` (centres undefined), the GI50 with A498 is 21 µM (inactive); in the test on CAKI-1, 21.4 µM (inactive); in the test with COLO 205, 18.7 µM (inactive); with HCT-15 it was 21.5 µM; with HL-60, 14.8 µM (inactive); with Hs-578T, 24.1 µM (inactive). For the same compound, the GI50 in the test on K562 was 35.2 µM (inactive); in the test with LOX IMVI it was 26.5 µM (inactive); in the test on MCF7, 34.9 µM (inactive); in the test with MDA-MB-231, 27.5 µM (inactive); in the test with MOLT-4 it was 25.5 µM (inactive); with OVCAR-8, 39.1 µM (inactive). Besides, the GI50 is 19.5 µM (inactive) in the test with PC-3; 26.7 µM (inactive) with RPMI-8226; 39.1 µM (inactive) with SK-MEL-5; 17.7 µM (inactive) in the test on SK-OV-3; 20 µM (inactive) with SNB-75; 34.8 µM (inactive) with TK-10. In the test with UACC-257, the GI50 was 34.1 µM (inactive).
Turning to `c1cc(CNCCN2CCNCC2)ccn1`, the GI50 in the test with A498 is > 100 µM (inactive); in the test with CAKI-1 it was > 100 µM (inactive); in the test with COLO 205 it was > 100 µM (inactive); in the test with HCT-15, over 100 µM; in the test on HOP-92, > 100 µM (inactive); with Hs-578T, > 100 µM (inactive). The GI50 in the test with K562, in the test with LOX IMVI, in the test with MCF7, in the test with MDA-MB-231, with MOLT-4 and in the test with OVCAR-8 was > 100 µM (inactive) throughout. The GI50 in the test with PC-3 was > 100 µM (inactive); in the test with RPMI-8226, > 100 µM (inactive); in the test on SK-MEL-5, > 100 µM (inactive); in the test on SK-OV-3, > 100 µM (inactive); with SNB-75, > 100 µM (inactive); in the test on TK-10 it was 20.3 µM (inactive). In addition, the GI50 in the test with UACC-257 was > 100 µM (inactive).
`O=C(O)C(=Cc1ccc(-c2ccc([N+](=O)[O-])cc2)o1)C(=O)O`: the GI50 in the test with A498 was > 100 µM (inactive); with CAKI-1 it was > 100 µM (inactive); in the test on COLO 205, > 100 µM (inactive); in the test with HCT-15, over 100 µM; in the test on HL-60, > 10 µM (inactive); with Hs-578T, > 100 µM (inactive). Further, the GI50 in the test with K562, with LOX IMVI, with MCF7, in the test with MDA-MB-231, with MOLT-4 and in the test on OVCAR-8 was > 100 µM (inactive) throughout. Besides, the GI50 in the test with PC-3, with RPMI-8226, in the test with SK-MEL-5, in the test on SK-OV-3, with SNB-75 and with TK-10 was > 100 µM (inactive) throughout. Moreover, the GI50 with UACC-257 is > 100 µM (inactive).
Turning to `C[C@H]1CC[C@@H]2[C@@H](C)[C@H]3[C@H](C[C@H]4[C@@H]5CC=C6C[C@@H](O)CC[C@]6(C)[C@H]5C[C@H](O)[C@]34C)N2C1`, the GI50 in the test on A498 is > 100 µM (inactive); in the test with CAKI-1 it was > 100 µM (inactive); with COLO 205 it was > 100 µM (inactive); in the test on HCT-15 it was over 100 µM; with HOP-92 it was > 100 µM (inactive); with Hs-578T, > 100 µM (inactive). The GI50 in the test on K562, in the test with LOX IMVI, with MCF7, in the test on MDA-MB-231, in the test on MOLT-4 and with OVCAR-8 was > 100 µM (inactive) each time. The GI50 with PC-3, with RPMI-8226, with SK-MEL-5, with SK-OV-3, in the test on SNB-75 and in the test with TK-10 was > 100 µM (inactive) each time. Further, the GI50 with UACC-257 was > 100 µM (inactive).
As to `O=C(c1ccco1)N(C(=S)OCc1ccccn1)c1ccccc1`, the GI50 in the test on A498 was > 100 µM (inactive); in the test on CAKI-1, > 100 µM (inactive); with COLO 205, > 100 µM (inactive); in the test with HCT-15 it was over 100 µM; in the test with HL-60, > 100 µM (inactive); in the test on Hs-578T, > 100 µM (inactive). In addition, the GI50 in the test with K562 was 75.3 µM (inactive); in the test with LOX IMVI it was > 100 µM (inactive); with MCF7, 75.3 µM (inactive); in the test on MDA-MB-231, > 100 µM (inactive); in the test on MOLT-4 it was > 100 µM (inactive); in the test with OVCAR-8, > 100 µM (inactive). Besides, the GI50 in the test with PC-3 was 59.8 µM (inactive); in the test with RPMI-8226 it was 49.3 µM (inactive); with SK-MEL-5, 88.9 µM (inactive); in the test with SK-OV-3, > 100 µM (inactive); in the test on TK-10, > 100 µM (inactive); in the test with UACC-257, > 100 µM (inactive).
For the compound `CS/C(=N\Nc1cnc2ccccc2n1)NS(=O)(=O)c1cc(C)c(Cl)cc1Cl`, the GI50 with A498 is 43.3 µM (inactive); in the test with CAKI-1 it was 53.5 µM (inactive); in the test on COLO 205, > 100 µM (inactive); with HCT-15, over 100 µM; with HL-60 it was 88.7 µM (inactive); in the test on HOP-92 it was 15.5 µM (inactive). The GI50 in the test with Hs-578T was > 100 µM (inactive); with K562, > 100 µM (inactive); in the test on LOX IMVI it was 61.1 µM (inactive); in the test with MCF7 it was 65.6 µM (inactive); with MDA-MB-231 it was 44.2 µM (inactive); with MOLT-4, > 100 µM (inactive). Moreover, the GI50 with OVCAR-8 is > 100 µM (inactive); with PC-3 it was > 100 µM (inactive); in the test with SK-MEL-5 it was > 100 µM (inactive); in the test on SK-OV-3 it was > 100 µM (inactive); in the test with SNB-75 it was 43.2 µM (inactive); in the test with TK-10, 82 µM (inactive). For the same compound, in the test on UACC-257, the GI50 was > 100 µM (inactive).
Consider `CC(C)=CC(=O)c1[nH]c2ccccc2c1CC(=O)NCCc1cncn1C`, for which the GI50 with A498 is 30 µM (inactive); with CAKI-1, > 100 µM (inactive); in the test with COLO 205, 21.9 µM (inactive); in the test on HCT-15 it was over 100 µM; in the test on HOP-92, 36.4 µM (inactive); in the test on Hs-578T, 99.1 µM (inactive). Also, the GI50 is 30.5 µM (inactive) with K562; 55.5 µM (inactive) in the test on LOX IMVI; 42.4 µM (inactive) in the test on MCF7; 84.3 µM (inactive) in the test with MDA-MB-231; > 100 µM (inactive) with MOLT-4; 62.4 µM (inactive) in the test on OVCAR-8. Besides, the GI50 was 50.2 µM (inactive) in the test with PC-3; 94.8 µM (inactive) in the test with SK-MEL-5; > 100 µM (inactive) in the test on SK-OV-3; 52.4 µM (inactive) in the test with SNB-75; 58.7 µM (inactive) with TK-10; 52.6 µM (inactive) in the test on UACC-257.
For the compound `COc1ccc(C(SC2C(O)C(CO)OC2n2ccc(N)nc2=O)(c2ccccc2)c2ccc(OC)cc2)cc1` (centres undefined), the GI50 in the test with CAKI-1 is 31.3 µM (inactive); in the test with COLO 205 it was 14.6 µM (inactive); in the test on HCT-15, 17.8 µM; in the test on HL-60 it was 26.9 µM (inactive); in the test on HOP-92, 17.5 µM (inactive); in the test on Hs-578T it was 18.4 µM (inactive). The GI50 in the test with K562 was 26.4 µM (inactive); in the test on LOX IMVI it was 17.7 µM (inactive); with MCF7 it was 17.3 µM (inactive); in the test with MDA-MB-231, 16 µM (inactive); with MOLT-4, 19.1 µM (inactive); in the test on OVCAR-8 it was 28.1 µM (inactive). Moreover, the GI50 with PC-3 was 16.4 µM (inactive); in the test with RPMI-8226, 17.5 µM (inactive); with SK-MEL-5, 12.9 µM (inactive); in the test on SK-OV-3 it was 12.2 µM (inactive); in the test with SNB-75, 16.5 µM (inactive); in the test with TK-10 it was 26.8 µM (inactive). The GI50 in the test on UACC-257 is 18.6 µM (inactive).
On to `C[C@H](CC[C@@H](O)C(C)(C)O)[C@H]1CC[C@@]2(C)[C@@H]3CC=C4[C@@H](CC[C@H](O)C4(C)C)[C@]3(C)C(=O)C[C@]12C` [BRYODULCOSIGENIN], for which the GI50 in the test with A498 is > 50 µM (inactive); in the test on COLO 205 it was 11.1 µM (inactive); in the test with HCT-15, 19.2 µM; in the test with HL-60 it was 24.5 µM (inactive); in the test on Hs-578T, 45.7 µM (inactive); with K562, 19.6 µM (inactive). Also, the GI50 in the test on LOX IMVI is 45.9 µM (inactive); in the test with MCF7, 3.05 µM (inactive); with MDA-MB-231, > 50 µM (inactive); in the test with MOLT-4 it was 19.5 µM (inactive); in the test with OVCAR-8, 27.4 µM (inactive); in the test with PC-3, 13.7 µM (inactive). Further, the GI50 was 13.3 µM (inactive) with RPMI-8226; 24.7 µM (inactive) with SK-MEL-5; 42.5 µM (inactive) with SK-OV-3; > 50 µM (inactive) with TK-10; 49 µM (inactive) with UACC-257.
`O=C(O)c1cc(NC2=C(Cl)C(=O)c3c(O)ccc(O)c3C2=O)ccc1O`: the GI50 in the test on A498 was > 10 µM (inactive); with CAKI-1 it was > 10 µM (inactive); in the test with COLO 205, > 10 µM (inactive); in the test with HCT-15 it was over 10 µM; in the test with HOP-92, > 10 µM (inactive); with Hs-578T, > 10 µM (inactive). The GI50 with K562, with LOX IMVI, with MCF7, with MDA-MB-231, with MOLT-4 and in the test on OVCAR-8 was > 10 µM (inactive) throughout. The GI50 with PC-3, in the test with SK-MEL-5, with SK-OV-3, in the test with SNB-75, in the test with TK-10 and in the test on UACC-257 was > 10 µM (inactive) in each case.
For `OCC(O)COCn1nncc1Cn1ncc2c(SCc3ccccc3)ncnc21` (centres undefined), the GI50 was > 100 µM (inactive) in the test on A498; > 100 µM (inactive) with CAKI-1; > 100 µM (inactive) with COLO 205; over 100 µM in the test on HCT-15; 0.203 µM (active) in the test on Hs-578T; > 100 µM (inactive) with LOX IMVI. The GI50 in the test on MCF7, in the test with MDA-MB-231, in the test with OVCAR-8, in the test on PC-3, in the test with SK-MEL-5 and with SK-OV-3 was > 100 µM (inactive) each time. In addition, the GI50 with TK-10 and in the test on UACC-257 was > 100 µM (inactive) throughout.
